Data on eleven compounds can be found in patent US7163946B2 (Ligand Pharmaceuticals Incorporated, priority 2002, dated 2007).

The target in assay [1] is T1, hPR (Homo sapiens, UniProt P06401).
T1 sequence (P06401 1-933): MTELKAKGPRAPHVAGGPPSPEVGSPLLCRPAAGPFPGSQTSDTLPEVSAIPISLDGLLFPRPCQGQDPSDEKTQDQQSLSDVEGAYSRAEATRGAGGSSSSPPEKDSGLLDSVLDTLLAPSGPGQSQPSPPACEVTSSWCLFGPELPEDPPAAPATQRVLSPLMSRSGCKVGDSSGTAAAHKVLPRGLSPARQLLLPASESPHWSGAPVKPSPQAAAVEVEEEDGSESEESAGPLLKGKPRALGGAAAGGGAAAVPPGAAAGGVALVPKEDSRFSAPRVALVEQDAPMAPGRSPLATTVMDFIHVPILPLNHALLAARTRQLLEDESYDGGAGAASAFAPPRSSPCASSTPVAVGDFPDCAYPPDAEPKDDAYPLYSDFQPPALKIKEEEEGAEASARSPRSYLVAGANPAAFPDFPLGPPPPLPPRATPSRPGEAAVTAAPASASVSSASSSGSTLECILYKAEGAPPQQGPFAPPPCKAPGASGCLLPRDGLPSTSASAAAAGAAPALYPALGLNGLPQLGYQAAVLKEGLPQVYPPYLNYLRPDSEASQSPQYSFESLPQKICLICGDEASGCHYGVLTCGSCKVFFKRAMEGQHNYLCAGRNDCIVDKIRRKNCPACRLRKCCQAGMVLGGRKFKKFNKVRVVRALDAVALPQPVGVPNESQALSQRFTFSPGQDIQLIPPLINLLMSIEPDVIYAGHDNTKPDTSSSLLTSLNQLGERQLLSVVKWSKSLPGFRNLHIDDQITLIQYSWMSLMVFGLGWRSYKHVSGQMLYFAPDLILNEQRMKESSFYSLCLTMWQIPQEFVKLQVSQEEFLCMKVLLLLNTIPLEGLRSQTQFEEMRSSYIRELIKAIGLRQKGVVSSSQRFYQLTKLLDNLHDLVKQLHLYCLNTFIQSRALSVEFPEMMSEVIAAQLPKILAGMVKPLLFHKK

The subject of assay [2] is immature rabbits. Kind of assay: McPhail (Clauberg) rabbit assay of progestational activity. It is filed as in vivo. Particulars: Oryctolagus cuniculus; estradiol-primed immature rabbits; glandular changes of the uterus; read-out: potency (MAD in mg/kg), minimum active dose. As for the experimental part: The superiority of the 7,9-difluoro analogue compounds of the present invention was further characterized utilizing the McPhail rabbit model according to the following illustrative Examples. The Clauberg or McPhail assay is a classic assay utilizing rabbits to measure progestational activity. […] In this assay, immature rabbits are treated initially with estradiol, which induces growth in the uterus. This is followed by a progestin, which causes a large change in the glandular content of the uterus. It is this change in the glandular component which is a measure of the progestational activity of a progestin. The measurement of these glandular changes is carried out histologically using stained sections of the uterus. The in vivo comparison between the new 7,9-difluoro compounds and analogues with substitution patterns different from 7,9-difluoro (U.S. Pat. Nos. 5,693,646 and 5,696,127) is tabulated in Tables 7 and 8. The in vivo potency of the progestins is presented as the minimum active dose (MAD).

Assay [3] relates to ovariectomized female rats. Kind of assay: Multi-endpoint adult rat model, uterus/breast tissue-selectivity. The settings on record: ratio of relative efficacy to MPA in uterus verse in breast tissue at the same highest dose tested; estrone-treated ovariectomized rats, three days. The assay is classed as in vivo.
From the text: In this assay, advantage is taken of the fact that in the uterus, estrogens induce a proliferation and increase in the epithelial cell height and uterine wet weight, which can be antagonized by progestins. In the breast, estrogens induce a proliferation of the ductal network while progestins stimulate the growth of the lobular-alveolar end buds, which grow from the distal end of the ducts. […] Proliferating cells or inhibition of proliferating cells were quantitated either by measurements of cell height in sectioned and stained tissue samples or, in the case of the breast, immuno-histochemically labeled Brdu incorporated nuclei.
For assay [4], the target named is T1, hPR. Kind of assay: hPR cotransfection assay in CV-1 cells, antagonist mode. It is filed as cell-based. The settings on record: CV-1 cells.
Method: (§1) Antagonist efficacy was determined as a function (%) of maximal inhibition of a reference agonist at EC50 concentration. All the cotransfection experiments were carried out in 96-well plates by automation (Beckman Biomomek automated workstation).
Assay [5] has as its target T1, hPR. Kind of assay: hPR cotransfection assay in CV-1 cells, agonist mode. It is filed as cell-based. The settings on record: CV-1 cells.
Method: as §1
In assay [6] the target is T2, hPR (Homo sapiens, UniProt P06401).
T2 sequence (P06401 679-933 limits assumed): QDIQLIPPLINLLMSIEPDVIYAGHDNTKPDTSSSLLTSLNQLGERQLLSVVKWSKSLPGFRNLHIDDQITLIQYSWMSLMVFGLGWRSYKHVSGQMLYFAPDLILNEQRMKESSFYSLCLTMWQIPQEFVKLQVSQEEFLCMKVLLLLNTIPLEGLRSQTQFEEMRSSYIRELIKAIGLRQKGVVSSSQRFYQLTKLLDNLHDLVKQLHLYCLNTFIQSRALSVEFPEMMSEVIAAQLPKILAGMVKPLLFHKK
Kind of assay: T47D alkaline phosphatase assay, agonist mode. It is filed as cell-based. The settings on record: T47D human breast cancer cells.
From the text: The potential tissue-selectivities of the selected analogues were examined by using the T47D alkaline phosphatase assay that was developed from human breast cancer cells with endogenous PRs.

Assay [7] deals with T3, hPR-A (Homo sapiens, UniProt P06401).
T3 sequence (P06401 1-769 isoform P06401-2): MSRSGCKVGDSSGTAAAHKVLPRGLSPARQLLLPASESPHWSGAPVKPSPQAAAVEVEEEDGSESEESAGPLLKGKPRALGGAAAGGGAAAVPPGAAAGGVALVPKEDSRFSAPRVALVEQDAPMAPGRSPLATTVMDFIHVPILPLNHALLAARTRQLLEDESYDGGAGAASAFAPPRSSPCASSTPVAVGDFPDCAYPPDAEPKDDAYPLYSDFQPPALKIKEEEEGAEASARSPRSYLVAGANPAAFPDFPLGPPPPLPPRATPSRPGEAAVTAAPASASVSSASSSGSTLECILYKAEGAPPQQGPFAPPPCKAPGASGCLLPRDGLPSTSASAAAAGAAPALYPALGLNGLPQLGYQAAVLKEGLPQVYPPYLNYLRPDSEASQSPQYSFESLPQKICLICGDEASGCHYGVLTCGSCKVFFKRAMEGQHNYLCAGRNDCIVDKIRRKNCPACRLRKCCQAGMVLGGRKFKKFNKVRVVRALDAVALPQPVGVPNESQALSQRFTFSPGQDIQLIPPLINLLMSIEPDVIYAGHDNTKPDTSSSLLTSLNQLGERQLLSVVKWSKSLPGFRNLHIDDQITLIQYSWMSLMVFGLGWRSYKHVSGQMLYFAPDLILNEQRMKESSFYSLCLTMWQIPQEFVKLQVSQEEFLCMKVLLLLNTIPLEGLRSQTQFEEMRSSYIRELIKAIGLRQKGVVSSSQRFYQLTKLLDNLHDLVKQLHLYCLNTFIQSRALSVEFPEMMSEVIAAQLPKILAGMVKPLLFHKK
Kind of assay: Receptor competitive binding assay. Particulars: read-out: PR binding Ki.

The mark [8] stands for this setting: footnote b: EC50 data from J. Med. Chem. 41 (1998), 291 and 303; read-out: hPR agonist potencies (EC50 in nM) in the cotransfection assay; cited from earlier work.
The mark [9] stands for this setting: footnote a: EC50 data from U.S. Pat. Nos. 5693646/5693647/5696127; read-out: hPR agonist potencies (EC50 in nM) in the cotransfection assay; cited from earlier work.

Like-named read-outs stand apart in the source and are kept apart here.

On to `CC1=CC(C)(C)Nc2ccc3c(c21)C(=Cc1ccccc1F)Oc1ccccc1-3` [Formula II X=H 2-F-Ph], for which the EC50 in assay [1] (setting [8]) is 29 nM.
Consider `CC1=CC(C)(C)Nc2ccc3c(c21)C(=Cc1ccccc1)Oc1ccccc1-3` [Formula II X=H Phenyl], for which the EC50 in assay [1] (setting [9]) was 33 nM.
With `CC1=CC(C)(C)Nc2ccc3c(c21)C(=Cc1ccccc1C)Oc1ccc(F)cc1-3` [Formula II X=9-F 2-Me-Ph, reference compound], the EC50 in assay [1] (setting [9]) was 4 nM. For the same compound, the minimal effective dose in assay [2] worked out at 1.2 mg/kg. Moreover, the uterus/breast tissue-selectivity in assay [3] is 2.3.
As to `CC1=CC(C)(C)Nc2ccc3c(c21)C(c1ccc(Cl)c(C)c1)Oc1c(F)cc(F)cc1-3` (single isomer, unassigned; (-)) [Compound 38, (−)-7,9-difluoro-5-(4-chloro-3-methylphenyl)-1,2-dihydro-2,2,4-trimethyl-5H-chromeno[3,4-f]quinoline], in assay [4], the IC50 was > 10000 nM. In assay [4] (maximal inhibition of reference agonist at EC50 concentration), the “hPR Antagonist CV-1 Cells Eff. (%)” value was “na (na = not active (i.e. efficacy of <20 and potency of >10,000))”. Further, in assay [5] (read-out: hPR Agonist CV-1 Cells EC50), the EC50 came out at 1.2 nM. In assay [5] (relative to maximal response of progesterone as 100%), the “hPR Agonist CV-1 Cells Eff. (%)” value is 110%. Also, in assay [6], the EC50 is 6.2 nM and the “hPR Agonist T47D cells Eff. (%)” value amounted to 54%. Moreover, the inhibitory constant (Ki) in assay [7] stood at 2 nM. In addition, the minimal effective dose in assay [2] was 0.25 mg/kg. The uterus/breast tissue-selectivity in assay [3] was 2.8.
In the case of `CC1=CC(C)(C)Nc2ccc3c(c21)C(=Cc1cccc(F)c1)Oc1ccccc1-3` [Formula II X=H 3-F-Ph, reference compound], the EC50 in assay [1] (read-out: hPR agonist potencies (EC50 in nM) in the cotransfection assay; footnote b: EC50 data from J. Med. Chem. 41 (1998), 291 and 303; cited from earlier work) was 7.6 nM. Further, the uterus/breast tissue-selectivity in assay [3] is 0.69.
In the case of `CC1=CC(C)(C)Nc2ccc3c(c21)C(c1ccccc1)Oc1ccccc1-3` (centres unmarked) [Formula I X=H Ph, reference compound], in assay [1] (setting [9]), the EC50 was 203 nM. Besides, the uterus/breast tissue-selectivity in assay [3] stood at 0.78.
As for `CC1=CC(C)(C)Nc2ccc3c(c21)C(=Cc1ccccc1C)Oc1ccccc1-3` [Formula II X=H 2-Me-Ph], the EC50 in assay [1] (setting [8]) was 5.7 nM.
On to `CC1=CC(C)(C)Nc2ccc3c(c21)C(=Cc1ccccc1Cl)Oc1ccccc1-3` [Formula II X=H 2-Cl-Ph], for which the concentration for a half-maximal effect (EC50) in assay [1] (setting [8]) was 57.8 nM.
`CC1=CC(C)(C)Nc2ccc3c(c21)C(=Cc1ccc(F)cc1)Oc1ccccc1-3` [Formula II X=H 4-F-Ph]: the 50% effective concentration (EC50) in assay [1] (setting [8]) is 59.5 nM.
With `CC1=CC(C)(C)Nc2ccc3c(c21)C(c1cccc(F)c1)Oc1ccccc1-3` (centres unmarked) [Formula I X=H 3-F-Ph], in assay [1] (setting [9]), the EC50 is 9 nM.
Take `CC1=CC(C)(C)Nc2ccc3c(c21)C(=Cc1cc(F)ccc1F)Oc1ccccc1-3` [Formula II X=H 2,5-diF-Ph]: the EC50 in assay [1] (setting [8]) was 14.7 nM.
